The values below are quoted from earlier work in US20210353570A1, “Flutamide Microsphere-Based Arterial Embolization for Treating Prostate Disorders” (Biovena Science, LLC, priority 2018, published 2021).

Assay in data set [1]: not given
The source holds these as a separate data set.

Consider `CC(C)C(=O)Nc1ccc([N+](=O)[O-])c(C(F)(F)F)c1` [Flutamide, 4′-nitro-3′-trifluoromethyl-isobutyranilide], for which the bioavailability (after oral administration) was 49%. The half-life (in vivo) was 5 to 6 h. For the same compound, in data set [1], the solubility result is on record as “low solubility”.

Broadly, the bioavailability is dose-corrected exposure relative to a reference, in per cent. Broadly, the half-life is the time needed for the level to fall by half in the phase considered.
